Read-outs that look alike come from different tables or passages of the source.
Type: in vivo, Japanese patients
Conditions: 15 mg QD (n = 3)

COc1cc2ncnc(Nc3ccc(F)c(Cl)c3)c2cc1NC(=O)/C=C/CN1CCCCC1 [dacomitinib, Dacomitinib]
Alanine aminotransferase increased, number of patients with treatment-related AE (All): 0
Aspartate aminotransferase increased, number of patients with treatment-related AE (All): 0
Blood bilirubin increased, number of patients with treatment-related AE (All): 0
Cheilitis, number of patients with treatment-related AE (All): 2
Conjunctivitis, number of patients with treatment-related AE (All): 0
Decreased appetite, number of patients with treatment-related AE (All): 0
Diarrhea, number of patients with treatment-related AE (All): 2
Dry skin, number of patients with treatment-related AE (All): 2
ECG QT prolonged, number of patients with treatment-related AE (All): 2
Edema, number of patients with treatment-related AE (All): 0
Fatigue, number of patients with treatment-related AE (All): 0
Hematuria, number of patients with treatment-related AE (All): 0
Hypertrichosis, number of patients with treatment-related AE (All): 0
Leukopenia, number of patients with treatment-related AE (All): 0
Nausea, number of patients with treatment-related AE (All): 0
Palmar–plantar erythrodysesthesia, number of patients with treatment-related AE (All): 1
Paronychia, number of patients with treatment-related AE (All): 1
Proteinuria, number of patients with treatment-related AE (All): 0
Rash, number of patients with treatment-related AE (All): 3
Skin fissures, number of patients with treatment-related AE (All): 0
Stomatitis, number of patients with treatment-related AE (All): 1
Weight decreased, number of patients with treatment-related AE (All): 0
Alanine aminotransferase increased, number of patients with treatment-related AE (G1): 0
Aspartate aminotransferase increased, number of patients with treatment-related AE (G1): 0
Blood bilirubin increased, number of patients with treatment-related AE (G1): 0
Cheilitis, number of patients with treatment-related AE (G1): 2
Conjunctivitis, number of patients with treatment-related AE (G1): 0
Decreased appetite, number of patients with treatment-related AE (G1): 0
Diarrhea, number of patients with treatment-related AE (G1): 2
Dry skin, number of patients with treatment-related AE (G1): 1
ECG QT prolonged, number of patients with treatment-related AE (G1): 1
Edema, number of patients with treatment-related AE (G1): 0
Fatigue, number of patients with treatment-related AE (G1): 0
Hematuria, number of patients with treatment-related AE (G1): 0
Hypertrichosis, number of patients with treatment-related AE (G1): 0
Leukopenia, number of patients with treatment-related AE (G1): 0
Nausea, number of patients with treatment-related AE (G1): 0
Palmar–plantar erythrodysesthesia, number of patients with treatment-related AE (G1): 1
Paronychia, number of patients with treatment-related AE (G1): 0
Proteinuria, number of patients with treatment-related AE (G1): 0
Rash, number of patients with treatment-related AE (G1): 2
Skin fissures, number of patients with treatment-related AE (G1): 0
Stomatitis, number of patients with treatment-related AE (G1): 1
Weight decreased, number of patients with treatment-related AE (G1): 0
Alanine aminotransferase increased, number of patients with treatment-related AE (G2): 0
Aspartate aminotransferase increased, number of patients with treatment-related AE (G2): 0
Blood bilirubin increased, number of patients with treatment-related AE (G2): 0
Cheilitis, number of patients with treatment-related AE (G2): 0
Conjunctivitis, number of patients with treatment-related AE (G2): 0
Decreased appetite, number of patients with treatment-related AE (G2): 0
Diarrhea, number of patients with treatment-related AE (G2): 0
Dry skin, number of patients with treatment-related AE (G2): 1
ECG QT prolonged, number of patients with treatment-related AE (G2): 1
Edema, number of patients with treatment-related AE (G2): 0
Fatigue, number of patients with treatment-related AE (G2): 0
Hematuria, number of patients with treatment-related AE (G2): 0
Hypertrichosis, number of patients with treatment-related AE (G2): 0
Leukopenia, number of patients with treatment-related AE (G2): 0
Nausea, number of patients with treatment-related AE (G2): 0
Palmar–plantar erythrodysesthesia, number of patients with treatment-related AE (G2): 0
Paronychia, number of patients with treatment-related AE (G2): 1
Proteinuria, number of patients with treatment-related AE (G2): 0
Rash, number of patients with treatment-related AE (G2): 1
Skin fissures, number of patients with treatment-related AE (G2): 0
Stomatitis, number of patients with treatment-related AE (G2): 0
Weight decreased, number of patients with treatment-related AE (G2): 0
Alanine aminotransferase increased, number of patients with treatment-related AE (G3): 0
Aspartate aminotransferase increased, number of patients with treatment-related AE (G3): 0
Blood bilirubin increased, number of patients with treatment-related AE (G3): 0
Cheilitis, number of patients with treatment-related AE (G3): 0
Conjunctivitis, number of patients with treatment-related AE (G3): 0
Decreased appetite, number of patients with treatment-related AE (G3): 0
Diarrhea, number of patients with treatment-related AE (G3): 0
Dry skin, number of patients with treatment-related AE (G3): 0
ECG QT prolonged, number of patients with treatment-related AE (G3): 0
Edema, number of patients with treatment-related AE (G3): 0
Fatigue, number of patients with treatment-related AE (G3): 0
Hematuria, number of patients with treatment-related AE (G3): 0
Hypertrichosis, number of patients with treatment-related AE (G3): 0
Leukopenia, number of patients with treatment-related AE (G3): 0

From paper PMC3523469 (Investigational New Drugs, 2012)
